Data on 16 molecules can be found in ChEMBL document CHEMBL4007451, “The 2014 Philip S. Portoghese Medicinal Chemistry Lectureship: The "Phenylalkylaminome" with a Focus on Selected Drugs of Abuse” (J Med Chem, 2017).

Assay [1] deals with T1, Sodium-dependent dopamine transporter (Rattus norvegicus, UniProt P23977). Briefly: Inhibition of DAT in Sprague-Dawley rat synaptosomes assessed as reduction in [3H]dopamine uptake by liquid scintillation counting method. The format is subcellular.
The target in assay [2] is T2, 5-hydroxytryptamine receptor 1A (Homo sapiens, UniProt P08908).
T2 sequence (P08908 whole entry): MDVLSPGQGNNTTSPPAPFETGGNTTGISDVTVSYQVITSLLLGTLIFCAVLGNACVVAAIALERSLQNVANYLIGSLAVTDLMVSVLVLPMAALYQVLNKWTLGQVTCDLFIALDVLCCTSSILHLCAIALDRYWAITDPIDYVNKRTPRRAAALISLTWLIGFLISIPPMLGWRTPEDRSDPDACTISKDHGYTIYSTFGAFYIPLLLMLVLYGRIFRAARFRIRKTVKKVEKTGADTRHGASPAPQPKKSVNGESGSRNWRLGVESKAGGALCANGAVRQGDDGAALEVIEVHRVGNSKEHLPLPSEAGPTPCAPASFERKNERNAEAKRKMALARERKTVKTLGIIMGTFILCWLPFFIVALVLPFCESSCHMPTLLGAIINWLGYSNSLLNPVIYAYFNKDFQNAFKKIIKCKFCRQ
Briefly: Binding affinity to 5-HT1A receptor (unknown origin).

Assay [3] concerns Mus musculus. Briefly: Anxiolytic-like activity in iv dosed ICR mouse assessed as increase in marbles left uncovered measured after 30 mins by marble burying assay. In kind it is functional. The note with it: 0.5 h.
In assay [4] the target is T3, Alpha-2A adrenergic receptor (Homo sapiens, UniProt P08913).
T3 sequence (P08913 whole entry): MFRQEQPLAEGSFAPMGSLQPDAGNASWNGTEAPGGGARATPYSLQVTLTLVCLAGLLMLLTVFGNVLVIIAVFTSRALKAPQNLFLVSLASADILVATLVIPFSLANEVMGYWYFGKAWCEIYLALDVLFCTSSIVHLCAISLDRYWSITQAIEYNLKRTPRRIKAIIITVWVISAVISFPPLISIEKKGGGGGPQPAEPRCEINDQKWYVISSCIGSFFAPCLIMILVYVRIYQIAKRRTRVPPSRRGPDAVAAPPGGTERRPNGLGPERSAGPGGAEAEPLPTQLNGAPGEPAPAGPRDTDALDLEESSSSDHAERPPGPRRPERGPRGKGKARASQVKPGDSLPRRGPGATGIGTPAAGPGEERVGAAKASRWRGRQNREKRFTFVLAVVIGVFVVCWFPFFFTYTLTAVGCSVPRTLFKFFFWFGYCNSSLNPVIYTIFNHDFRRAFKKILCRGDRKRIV
Briefly: Binding affinity to alpha-2A receptor (unknown origin).

The target of assay [5] is T4, Alpha-2C adrenergic receptor (Homo sapiens, UniProt P18825).
T4 sequence (P18825 whole entry): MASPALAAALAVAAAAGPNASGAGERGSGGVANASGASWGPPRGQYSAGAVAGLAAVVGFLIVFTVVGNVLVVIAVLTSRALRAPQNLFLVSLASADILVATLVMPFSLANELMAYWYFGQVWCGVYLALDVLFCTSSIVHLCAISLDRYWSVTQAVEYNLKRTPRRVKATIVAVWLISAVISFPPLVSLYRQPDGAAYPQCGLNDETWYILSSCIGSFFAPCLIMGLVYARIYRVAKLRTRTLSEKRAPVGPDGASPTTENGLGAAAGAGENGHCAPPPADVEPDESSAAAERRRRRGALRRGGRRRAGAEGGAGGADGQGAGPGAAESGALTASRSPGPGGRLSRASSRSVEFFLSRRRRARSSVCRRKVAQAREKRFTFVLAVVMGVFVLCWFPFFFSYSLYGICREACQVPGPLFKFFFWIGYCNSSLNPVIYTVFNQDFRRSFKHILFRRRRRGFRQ
Briefly: Binding affinity to alpha-2C receptor (unknown origin).

Assay [6] deals with T5, Alpha-2B adrenergic receptor (Homo sapiens, UniProt P18089).
T5 sequence (P18089 whole entry): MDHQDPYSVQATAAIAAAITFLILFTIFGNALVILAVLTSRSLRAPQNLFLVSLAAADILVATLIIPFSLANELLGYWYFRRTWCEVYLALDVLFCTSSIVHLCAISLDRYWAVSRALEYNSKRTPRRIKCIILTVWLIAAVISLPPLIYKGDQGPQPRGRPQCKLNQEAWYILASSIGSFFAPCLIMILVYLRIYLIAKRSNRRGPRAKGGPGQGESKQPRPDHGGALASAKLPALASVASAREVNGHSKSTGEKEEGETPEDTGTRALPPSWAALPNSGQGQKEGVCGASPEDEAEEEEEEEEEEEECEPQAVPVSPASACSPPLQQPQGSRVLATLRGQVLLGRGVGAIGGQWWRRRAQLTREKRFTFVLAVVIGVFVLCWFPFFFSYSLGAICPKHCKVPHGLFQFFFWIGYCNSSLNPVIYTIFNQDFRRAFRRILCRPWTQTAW
The assay can be described thus: Binding affinity to alpha-2B receptor (unknown origin).

Assay [7] is filed under the species Rattus norvegicus. Briefly: Induction of stimulus generalization in rat trained to discriminate (-)ephedrine assessed as appropriate responding level to training drug by two lever method. In kind it is functional.
Assay [8] is filed under the species Rattus norvegicus. Briefly: Induction of stimulus generalization in rat trained to discriminate S(+)methamphetamine assessed as appropriate responding level to training drug by two lever method. In kind it is functional.
Assay [9] concerns Rhesus monkey. Briefly: In vivo agonist activity at 5HT2A in DOM-trained rhesus monkey assessed as increase in discriminative stimulus administered subcutaneously pretreated before testing. In kind it is functional. The note with it: Macaca mulatta, sc.
Assay [10] concerns Rattus norvegicus. Briefly: In vivo agonist activity at 5HT2A in ip dosed DOM-trained Sprague-Dawley rat assessed as increase in discriminative stimulus pretreated before testing. In kind it is functional.
For assay [11], the target named is T6, 5-hydroxytryptamine receptor 2A (Rattus norvegicus, UniProt P14842). The assay can be described thus: Displacement of [3H]ketanserin from 5HT2A in Sprague-Dawley rat frontal cortex membranes measured after 15 mins by scintillation counting method. On the set-up: species or system Membrane. (Displacement assays read how much labelled ligand stays bound in the presence of the test substance.)
T6 sequence (P14842 whole entry): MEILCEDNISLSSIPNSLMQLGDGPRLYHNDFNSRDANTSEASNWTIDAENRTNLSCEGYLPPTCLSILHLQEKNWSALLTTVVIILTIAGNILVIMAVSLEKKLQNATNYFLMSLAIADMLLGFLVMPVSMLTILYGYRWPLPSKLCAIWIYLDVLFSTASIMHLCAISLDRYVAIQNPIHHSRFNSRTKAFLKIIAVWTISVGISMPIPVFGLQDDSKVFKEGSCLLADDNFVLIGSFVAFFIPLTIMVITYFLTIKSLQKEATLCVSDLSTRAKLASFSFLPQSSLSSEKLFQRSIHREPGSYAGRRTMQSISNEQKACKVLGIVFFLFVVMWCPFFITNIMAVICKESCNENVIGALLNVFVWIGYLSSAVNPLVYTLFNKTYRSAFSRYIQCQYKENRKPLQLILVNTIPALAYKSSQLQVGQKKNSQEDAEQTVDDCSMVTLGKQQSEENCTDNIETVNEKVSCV

Assay [12] deals with Sodium-dependent serotonin transporter (Rattus norvegicus, UniProt P31652). The assay can be described thus: Activity at SERT in rat synaptosomes assessed as release of [3H]HT after 5 mins by liquid scintillation counting method. In kind it is subcellular.
Chain of Sodium-dependent serotonin transporter (P31652 whole entry): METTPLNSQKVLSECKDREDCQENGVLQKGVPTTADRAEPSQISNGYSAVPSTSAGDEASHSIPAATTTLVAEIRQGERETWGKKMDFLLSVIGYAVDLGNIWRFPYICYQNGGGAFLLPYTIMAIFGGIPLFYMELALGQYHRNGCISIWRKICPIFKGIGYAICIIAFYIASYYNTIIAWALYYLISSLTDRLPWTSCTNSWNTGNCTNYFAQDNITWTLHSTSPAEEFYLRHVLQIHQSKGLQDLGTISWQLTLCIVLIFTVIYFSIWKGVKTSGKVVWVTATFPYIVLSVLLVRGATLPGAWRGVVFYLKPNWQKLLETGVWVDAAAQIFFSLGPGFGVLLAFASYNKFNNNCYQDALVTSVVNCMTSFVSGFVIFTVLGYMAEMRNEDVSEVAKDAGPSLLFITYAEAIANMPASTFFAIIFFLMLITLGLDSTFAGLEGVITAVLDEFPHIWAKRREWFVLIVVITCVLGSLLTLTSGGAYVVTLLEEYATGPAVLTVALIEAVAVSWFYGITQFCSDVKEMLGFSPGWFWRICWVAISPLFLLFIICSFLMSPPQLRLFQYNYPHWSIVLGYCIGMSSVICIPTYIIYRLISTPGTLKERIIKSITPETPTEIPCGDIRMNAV
In assay [13] the target is T1, Sodium-dependent dopamine transporter. Briefly: Activity at DAT in rat synaptosomes assessed as release of [3H]DA after 5 mins by liquid scintillation counting method. In kind it is subcellular.
A short description of assay [14]: Activity at NET in rat synaptosomes assessed as release of [3H]NE after 30 mins by liquid scintillation counting method. In kind it is subcellular.
The species entered for assay [15] is Rattus norvegicus. The assay can be described thus: Induction of stimulus generalization in Sprague-Dawley rat trained to discriminate TDIQ assessed as appropriate responding level to training drug by two lever method. In kind it is functional.
Assay [16] is filed under the species Rattus norvegicus. Briefly: Induction of stimulus generalization in Sprague-Dawley rat trained to discriminate S(+)AMPH assessed as appropriate responding level to training drug by two lever method. The format is functional.
The species entered for assay [17] is Rattus norvegicus. Briefly: Induction of stimulus generalization in Sprague-Dawley rat trained to discriminate S(-)MCAT assessed as appropriate responding level to training drug by two lever method. In kind it is functional.
Assay [18] deals with T6, 5-hydroxytryptamine receptor 2A. Briefly: Displacement of [3H]ketanserin from 5HT2A in Sprague-Dawley rat cortex membranes measured after 15 mins. In kind it is cell membranes.
The target is the same in assay [19]. Briefly: Displacement of [125I]DOI from rat cortex 5HT2A after 1 hr by beta scintillation counting method.
Assay [20] has as its target 5-hydroxytryptamine receptor 6 (Homo sapiens, UniProt P50406). Briefly: Displacement of [3H]LSD from human 5HT6 receptor expressed in HEK293 cells. In kind it is cell-based.
Assay [21] concerns the target Trace amine-associated receptor 1 (Rattus norvegicus, UniProt Q923Y9). Briefly: Agonist activity at rat N-terminal FLAG-tagged TAAR1 expressed in HEK293 cells assessed as [3H]cAMP accumulation measured after 1 hr. In kind it is functional, cell-based.
The species entered for assay [22] is Rattus norvegicus. The assay can be described thus: Induction of stimulus generalization in rat trained to discriminate PMMA assessed as appropriate responding level to training drug by two lever method. The format is functional. As to conditions: Rattus norvegicus.
The target in assay [23] is T6, 5-hydroxytryptamine receptor 2A. The assay can be described thus: Displacement of [125I](+/-)DOI from rat 5HT2A after 1 hr by beta scintillation counting method.

T1 sequence (P23977 whole entry): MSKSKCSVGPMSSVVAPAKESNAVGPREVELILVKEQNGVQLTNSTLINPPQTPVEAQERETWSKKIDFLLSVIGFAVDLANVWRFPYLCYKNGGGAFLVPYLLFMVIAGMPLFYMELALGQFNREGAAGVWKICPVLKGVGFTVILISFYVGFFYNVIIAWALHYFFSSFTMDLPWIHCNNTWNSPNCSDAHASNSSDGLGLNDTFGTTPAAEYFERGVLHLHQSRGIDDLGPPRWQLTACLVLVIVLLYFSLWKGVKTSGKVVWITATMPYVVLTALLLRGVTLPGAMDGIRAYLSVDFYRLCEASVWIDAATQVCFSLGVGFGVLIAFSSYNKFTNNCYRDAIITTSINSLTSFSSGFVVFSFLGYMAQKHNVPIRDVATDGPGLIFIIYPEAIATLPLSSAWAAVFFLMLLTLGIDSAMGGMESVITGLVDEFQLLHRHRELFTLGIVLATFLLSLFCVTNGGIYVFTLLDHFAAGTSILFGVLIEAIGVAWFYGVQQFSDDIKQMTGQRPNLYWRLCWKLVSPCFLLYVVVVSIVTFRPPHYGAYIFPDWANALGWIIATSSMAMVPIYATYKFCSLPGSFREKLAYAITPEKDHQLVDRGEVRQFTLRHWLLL
Chain of 5-hydroxytryptamine receptor 6 (P50406 whole entry): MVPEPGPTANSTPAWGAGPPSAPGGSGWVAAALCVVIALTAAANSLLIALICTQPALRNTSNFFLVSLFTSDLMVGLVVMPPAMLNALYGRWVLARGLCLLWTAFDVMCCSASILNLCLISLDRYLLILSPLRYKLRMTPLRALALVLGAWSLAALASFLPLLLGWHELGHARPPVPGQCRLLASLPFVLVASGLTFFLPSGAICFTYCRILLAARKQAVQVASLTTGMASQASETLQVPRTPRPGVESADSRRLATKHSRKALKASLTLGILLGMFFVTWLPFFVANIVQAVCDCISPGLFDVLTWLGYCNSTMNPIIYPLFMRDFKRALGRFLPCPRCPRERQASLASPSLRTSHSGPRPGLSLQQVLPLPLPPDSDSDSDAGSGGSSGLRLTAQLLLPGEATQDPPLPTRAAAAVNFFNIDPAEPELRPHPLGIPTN
Chain of Trace amine-associated receptor 1 (Q923Y9 whole entry): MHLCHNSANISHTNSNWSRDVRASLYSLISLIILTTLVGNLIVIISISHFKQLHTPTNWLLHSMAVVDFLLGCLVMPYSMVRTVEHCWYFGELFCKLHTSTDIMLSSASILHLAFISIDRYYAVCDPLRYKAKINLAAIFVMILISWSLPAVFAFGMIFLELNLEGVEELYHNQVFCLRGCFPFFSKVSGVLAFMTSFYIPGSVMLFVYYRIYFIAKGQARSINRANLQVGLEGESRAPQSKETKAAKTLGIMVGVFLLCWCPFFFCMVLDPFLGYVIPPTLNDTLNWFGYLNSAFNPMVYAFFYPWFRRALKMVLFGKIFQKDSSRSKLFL

As to `CCC[C@@H](C(=O)c1ccc2c(c1)OCO2)N1CCCC1`, the IC50 in [1] was found to be 2.1 nM.
As to `CCCN(CCC)CCc1ccccc1O`, in assay [2], the Ki is 400 nM.
For `c1c2c(cc3c1OCO3)CNCC2`, the ED50 in assay [3] came to 0.2 mg/kg. In addition, the Ki in assay [4], in [5] and in assay [6] was less than 100 nM each time.
Consider `CN[C@@H](C)[C@H](O)c1ccccc1` [EPHEDRINE], for which the ED50 in [7] was 0.8 mg/kg; in assay [8] it was 13.1 mg/kg.
For `COc1cc(C[C@@H](C)N)c(OC)cc1I`, the ED50 in assay [9] came out at 0.04 mg/kg; in [10], 0.2 mg/kg.
As for `CN[C@H](C)Cc1ccc2c(c1)OCO2`, the Ki in assay [11] was 3310 nM. Further, the half-maximal effective concentration (EC50) in assay [12] is 340 nM; in assay [13], 3700 nM; in assay [14] it was 560 nM.
Regarding `COC(=O)[C@H]1[C@@H](OC(=O)c2ccccc2)C[C@@H]2CC[C@H]1N2C` [COCAINE], the ED50 in assay [15] was 1.5 mg/kg; in assay [16], 5.63 mg/kg; in assay [17], 1.47 mg/kg; in assay [8], 3.68 to 6.68 mg/kg.
For the molecule `CN[C@H](C)Cc1ccccc1`, the ED50 in assay [7] is 0.9 mg/kg; in assay [8], 1.61 mg/kg.
In [18], `COc1cc(CC(C)N(C)C)c(OC)cc1Br` (centres undefined) had a Ki of 380 nM.
As for `C[C@H](N)Cn1ncc2ccc3c(c21)CCCO3`, the ED50 in assay [9] is 0.04 mg/kg; in assay [10], 0.05 mg/kg. This molecule gave a Ki in assay [19] of 0.13 nM.
As to `NC1CCc2c(cccc2NS(=O)(=O)c2ccccc2)C1` (centres undefined), in assay [20], the Ki worked out at 49 nM.
As to `NCCc1ccccc1` [PHENETHYLAMINE], the EC50 in assay [21] turned out to be 240 nM.
For `CCCNCCc1ccccc1O`, the Ki in assay [2] was more than 1000 nM.
With `CN[C@@H](C)Cc1ccc2c(c1)OCO2`, the Ki in assay [11] came out at 15800 nM. For the same molecule, the figures for the EC50 in [12], in assay [13] and in assay [14] were 74 nM, 142 nM and 136 nM, respectively. The ED50 in [22] was determined as 0.48 mg/kg.
`NCCc1ccc(S(=O)(=O)n2ccc3ccccc32)cc1`: in assay [20], the inhibitory constant (Ki) was found to be 2.5 nM.
Regarding `COc1cc([C@H](OC)[C@@H](C)N)c(OC)cc1Br`, the affinity in assay [23] corresponds to a Ki of 17.4 nM.

One may read the IC50 as the point on the concentration scale where inhibition reaches its midpoint. For orientation: Ki means the dissociation constant of the complex between target and ligand, obtained from inhibition or displacement. One may read the ED50 as the dose that gives a 50% effect, or the effect in half of the subjects. For orientation: EC50 means the concentration giving half of the maximal effect.
